The text below walks through data of US8815305B2, “Composition containing a plant extract and process for producing same” (BASF Beauty Care Solutions France S.A.S., priority 2003, dated 2014).

Series [1] is described as follows: Toxicity tests and growth tests on human fibroblasts (cellular proteins, Bradford). It is filed as cell-based. Particulars: human.
The subject of series [2] is human fibroblasts. Described as above. It is filed as cell-based.
The test system of series [3] is human fibroblasts. Put plainly: Survival efficacy test on human fibroblasts (DNA, ATP, proteins, GSH). Particulars: for ATP / DNA / GSH/proteins / Proteins: quiescent fibroblasts, 3 days. The class given is cell-based. As for the experimental part:
Human fibroblasts were inoculated in a standard medium of a cell culture with foetal calf serum (FCS). After an incubation of 3 days the cells became quiescent, then the growth medium was exchanged for a standard medium with a range of concentrations for each ingredient to be tested. After an incubation of 3 days, the number of viable cells was determined by evaluation of the levels of and the rates of cellular DNA (fluorescent probe), ATP (enzymatic method), proteins (Bradford's method) and GSH which is evaluated according to the method of Hissin (Hissin P. J., Hilf R. A, fluorometric method for determination of oxidised and reduced Glutathione in tissues. Analytical Biochemistry (1977) volume 74, pages 214-226).

Series [4] concerns human fibroblasts. Nature of the series: Cytophotoprotection of human fibroblasts against UV-A radiation. The class given is cell-based. As for the experimental part: The cytoprotection against UV-A radiation was evaluated by a test on human fibroblasts because UV-A radiation penetrates through the epidermis until the derma where it induces oxidative stress (DALLE CARBONARE M, PATHAK M A; Skin photosensitising agents and the role of reactive oxygen species in photoaging; JOURNAL OF PHOTOCHEMISTRY & PHOTOBIOLOGY, 1992, 14, 1-2, pages 105-124. This oxidative stress was evaluated in vitro by measuring of the level of released MDA (malonaldehyde) and of intracellular GSH (reduced glutathione) (Morliere P., Moisan A., Santus R., Huppe G., Mazière J. C., Dubertret L.: UV-A induced lipid peroxydation in cultured human fibroblasts. Biochim. Biophys. Acta, 1084, 3, pages 261-269 (1991)).
Expressed in keywords, the experiments were carried out as follows: • Inoculation of human fibroblasts within a growth medium (standard medium with foetal calf serum (FCS) • Incubation 3 days at 37° C., CO2=5% • Exchange of growth medium with balanced salt solution • Irradiation of fibroblasts by UV-A: 20 J/cm^2 (black light TFWN lamp) (A TFWN lamp is a certain type of marketed sunlamp well known to the skilled artisan) • Exchange of growth medium with standard medium without FCS but containing ingredient to be tested • Incubation 3 days at 37° C., CO2=5% • Recovery of supernatant medium for spectrophotometric determination of the malonaldialdehde (or MDA) rate • Cells number determined by evaluation of the levels of cellular proteins (Bradford's method) and the rate of cellular GSH was evaluated according to the method of Hissin

The test system of another series is human keratinocytes. Put plainly: Cytophotoprotection of human keratinocytes against UV-B radiation. Particulars: for Cell number, % against control / Released LDH, % against control / Released PGE2, % against control: UVB. It is filed as cell-based. The source says:
UV-B irradiation (from 280 to 320 nm) of the human skin induces a cutaneous inflammation mainly by activation of an enzyme (phospholipase A2 or PLA2), which releases arachidonic acid from the cell membranes of the cells of the skin (V. A. De Leo, D. Hanson, I. B. Weinstein and L. C. Harber—Ultraviolet radiation stimulates the release of arachidonic acid from mammalian cells in culture—Photochemistry and Photobiology (1985) volume 41N°1 pages 51-56). Then other specific enzymes (so called cyclo-oxygenases) transform arachidonic acid in active components called prostaglandines (or PG) which are secreted out of the cells. The fixation of certain prostaglandins (PGE2) on specific skin receptors is followed by redness and swelling as after a sunburn. On cultured human cells, these UV-B effects on cell membranes are associated with a release in the supernatant medium of a cytoplasmic enzyme, the Lactate Dehydrogenase or LDH (B. Bonnekoh, B. Farkas, J. Geisel and G. Mahrle—Lactate dehydrogenase release as an indicator of dithranol-induced membrane injury in cultured human keratinocytes. Dermatological research (1990) volume 282, pages 325-331).
Expressed in keywords, the experiments were carried out as follows: • Inoculation of human keratinocytes within growth medium (standard medium with fetal calf serum (FCS) • Incubation 3 days at 37° C., CO2=5% • Exchange of growth medium with balanced salt solution containing ingredient to be tested • Irradiation of keratinocytes by UV-B: 50 mJ/cm^2 (DUKE GL40E lamp) (A DUKE GL40E lamp is a certain type of marketed sunlamp well known to the skilled artisan) • Incubation 1 day at 37° C., CO2=5% • Numeration of adherent cells after trypsination (trypsination is a process based on the use of the enzyme trypsine which is a protease allowing the retrieval of cell from the support in order to seed the cells into a bigger flask and therefore to expand the cell culture) • Recovery of supernatant medium for spectrophotometric determination of the activity of LDH, and PGE2 by ELISA method

A further series concerns the target elastase from pancreas (Sus scrofa, UniProt P00772). Put plainly: Elastase inhibition, Elastin-Congo red as substrate. The class given is biochemical. As for the experimental part: This test was carried out with an elastase from pancreas on Elastin labelled with Congo red. The time of incubation was 30 minutes at room temperature and the optical density of released Congo red was recorded after centrifugation at a wavelength of 520 nm. al-antitrypsine was used as positive reference.
The following table summarizes the results expressed as EC 50 in % w/v. (EC 50 in % w/v is the concentration in % w/v which reduces the enzymatic activity by 50%.)

The target of series [5] is T1, human leucocyte elastase (HLE) (Homo sapiens, UniProt P08246).
T1 sequence (P08246 30-267): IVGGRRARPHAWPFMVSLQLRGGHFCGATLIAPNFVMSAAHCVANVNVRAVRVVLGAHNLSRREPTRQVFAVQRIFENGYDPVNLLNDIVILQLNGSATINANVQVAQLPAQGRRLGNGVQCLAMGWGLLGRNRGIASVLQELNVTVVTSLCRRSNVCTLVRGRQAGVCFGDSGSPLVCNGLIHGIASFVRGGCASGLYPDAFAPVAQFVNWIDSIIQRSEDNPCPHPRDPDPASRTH
Particulars: cited from earlier work.

Series [6] deals with skin chronic inflammation. Particulars: in vivo; cited from earlier work.
Series [7] concerns the target T1, human leucocyte elastase (HLE). Particulars: read-out: HLE inhibitory activity IC(50); cited from earlier work.

pIC50, pKi: −log10 of the molar value.

Usually viability stands for a read-out of living cells in per cent, often relative to untreated cells.

Chain of elastase from pancreas (P00772 27-266): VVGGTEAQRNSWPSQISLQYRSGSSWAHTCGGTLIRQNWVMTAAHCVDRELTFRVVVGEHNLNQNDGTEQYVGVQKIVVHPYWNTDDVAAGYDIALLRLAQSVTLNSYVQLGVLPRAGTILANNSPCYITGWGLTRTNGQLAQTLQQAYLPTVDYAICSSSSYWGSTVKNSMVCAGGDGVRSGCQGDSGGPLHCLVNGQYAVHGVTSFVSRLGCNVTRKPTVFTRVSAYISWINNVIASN

For the compound `CC1(C)CC[C@]2(CO)CC[C@]3(C)C(=CC[C@@H]4[C@@]5(C)CC[C@H](O)C(C)(C)[C@@H]5CC[C@]43C)[C@@H]2C1` [erythrodiol], in series [1], the viability at 3 days, 0.0001 % was 104%; the viability at 3 days, 0.0003 % was found to be 105%; the viability at 3 days, 0.001 % is 43%; the viability at 3 days, 0.003 % stood at 34%. Moreover, the “LD50 (% w/v)” value in the series on human fibroblasts [2] (human fibroblasts, 3 days incubation) amounted to 0.0009% w/v. For the same compound, in the series with human fibroblasts [2] (human, 3 days), the “safe at concentrations up to” value is reported as “up to 0.0003%”. In the series with human fibroblasts [3] (0.00001% w/v), the ATP was determined as 107%, the DNA was 96%, the GSH/proteins is reported as 120% and the Proteins was 100%. In addition, in the series with human fibroblasts [3] (0.00003% w/v), the ATP stood at 99%, the DNA is listed as 108%, the GSH/proteins is recorded as 141% and the Proteins is recorded as 97%. In the series with human fibroblasts [3] (0.0001% w/v), this compound returned an ATP of 66%, a DNA of 78%, a GSH/proteins of 101% and a Proteins of 91%. Moreover, in the series with human fibroblasts [3] (0.0003% w/v), the ATP is on record as 73%, the DNA was 59%, the GSH/proteins stood at 88% and the Proteins came out at 83%. Moreover, the “amount of GSH synthesized by human fibroblasts” value in the series on human fibroblasts [3] (only at a concentration of 0.00003%) is listed as “modified”. In addition, the “protection of human fibroblasts from toxic UVA effects” value with human fibroblasts [4] is “moderately protected”. Also, in the series on human fibroblasts [4] (UV-A 20 J/cm^2, dose 0.0001%), the “GSH/protein, % against control” value is recorded as 94%; the “Released MDA, % against control” value is 81%; the “cell's protein, % against control” value is 139%. In the series on human fibroblasts [4] (UV-A 20 J/cm^2, dose 0.0003%), the “GSH/protein, % against control” value worked out at 22%; the “Released MDA, % against control” value came to 70%; the “cell's protein, % against control” value was determined as 42%. Moreover, the “UV toxic effects on the number of viable cells (cell number and released LDH)” value in the series on human keratinocytes is “not modified”. Besides, in the series on human keratinocytes (dose 0.00001%), the “Cell number, % against control” value stood at 21%; the “Released LDH, % against control” value worked out at 135%; the “Released PGE2, % against control” value was 135%. Besides, in the series with human keratinocytes (dose 0.00003%), the “Cell number, % against control” value turned out to be 23%; the “Released LDH, % against control” value worked out at 118%; the “Released PGE2, % against control” value is 164%. Also, the “inhibition of proteases such as elastase” value against elastase from pancreas is “good potential to inhibit”. The IC50 at elastase from pancreas (30 minutes at room temperature, Elastin-Congo red, read-out: Elastase EC 50 (concentration which reduces the enzymatic activity by 50%) (converted)) was 1810 µM. Also, the “interaction with the ursolic acid binding site of HLE” value in series [5] was “can also interact with this binding site”. In addition, in series [6], the “activity on chronic dermal inflammation” value is “significantly effective”.

Consider `C[C@H]1[C@H](C)CC[C@]2(C(=O)O)CC[C@]3(C)C(=CC[C@@H]4[C@@]5(C)CC[C@H](O)C(C)(C)[C@@H]5CC[C@]43C)[C@H]12` [ursolic acid], for which the pIC50 in series [7] is 5.36. In series [5] (hydrolysis of peptide substrates in phosphate-buffered saline, read-out: inhibition constant, HLE), the pKi is 5.22 to 5.40. In addition, the “activity on chronic dermal inflammation” value in [6] is reported as “significantly effective”.
